Laboratory results: patent US20100184703A1, “USE OF PEPTIDE DERIVATIVES FOR TREATING PATHOLOGIES RESULTING FROM ISCHEMIA” (CHIESI FARMACEUTICI S.p.A., priority 2007, published 2010)
Entries after “also recorded” stand apart in the source; their conditions may differ. Peptide text beside a SMILES is read from it. * marks the point of attachment. X1 = COC(=O)CC(N*)C(=O)COc1c(F)cccc1F; Quinaldoyl = O=C(c1ccc2ccccc2n1)*

Tests used:
Format in all cases: in vivo
[1] = molecular target: T1, caspase-3 (Rattus norvegicus, UniProt P55213); test: Dosage of caspase-3 activity in myocardial tissue, reperfusion ischemia (IR) model; details: administered 15 min before the reperfusion, VGZI, VD, Apex and VGZNI
T1 construct: from tissue; host or cells: rat myocardium (left ventricle, right ventricle, septum, apex) extracts
T1 sequence (P55213 29-175 limits assumed): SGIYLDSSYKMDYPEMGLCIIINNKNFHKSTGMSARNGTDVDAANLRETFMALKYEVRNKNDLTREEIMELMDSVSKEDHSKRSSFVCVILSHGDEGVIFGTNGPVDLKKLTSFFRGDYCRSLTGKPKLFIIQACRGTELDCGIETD
T1 sequence (P55213 176-277 limits assumed): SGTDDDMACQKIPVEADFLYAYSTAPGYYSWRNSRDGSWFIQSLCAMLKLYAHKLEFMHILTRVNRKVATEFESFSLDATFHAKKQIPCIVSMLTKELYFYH
Description: The analyses were performed on 2 myocardial ischemia models: a chronic ischemia model and an acute ischemia model, followed by myocardial reperfusion after 30 min of occlusion.
Said models were realized with Wistar male rats (180-220 g). The coronary artery was ligatured according to Pfeffer et al protocol.
Briefly, the rats were anaesthetized by intraperitoneal administration of a mixture of Ketamine (150 mg/kg) and Xylazine (15 mg/kg), then intubated and mechanically ventilated. The animals were submitted to a left and median thoracotomy. An occlusion of the coronary artery was done with a silk wire (size: 7.0) at the more proximal point and below the auricle.
In the case of reperfusion ischemia model (IR model), the silk wire was untied after 30 min of occlusion. The artery was then cleared and the myocardial territory reperfused. The control animals (sham operated) were submitted to the same surgery protocol as the above animals, but the silk wire was passed under the coronary without making any ligature.
The animals were sacrificed by a pentobarbital lethal injection. The heart was excised and perfused about 5 min by Langerdorf reverse way using a calcium-free washing solution (in mM: NaCl 117 mM, KCl 5.7, NaHCO3 4.4, KH2PO4 1.5, MgCl2 1.7, HEPES 21, glucose 11, taurine 20, pH 7.2 adjusted with NaOH). The heart was then placed into a dissection tank and the different myocardial territories were taken (i.e. right ventricle (VD), septum, Apex, left ventricle (selectively in infarcted area (VGZI) and non-infarcted area (VGZNI)). Each fragment of tissue was rapidly frozen in liquid nitrogen and kept at −80° C.
Each tissue was then thawed and about 1-2 mm^3 was taken. […]
The supernatant was taken and divided into 2 tubes for of each sample. The tubes were placed at −80° C. before performing the spectrophotometric proteic dosage (BCA: cupper (II) sulphate+solution A of bicinchronic acid, DO measured at 550 nm) in transparent, with flat bottom, 96-well plates. […]

[2] = molecular target: T2, caspase-2 (Rattus norvegicus, UniProt P55215); test: Dosage of caspase-2 activity in myocardial tissue, reperfusion ischemia (IR) model; details: administered 15 min before the reperfusion, VGZI and septum
T2 construct: Each fragment of tissue was rapidly frozen in liquid nitrogen and kept at −80° C; from tissue; host or cells: rat myocardium (left ventricle, right ventricle, septum, apex) extracts
T2 sequence (P55215 170-325 limits assumed): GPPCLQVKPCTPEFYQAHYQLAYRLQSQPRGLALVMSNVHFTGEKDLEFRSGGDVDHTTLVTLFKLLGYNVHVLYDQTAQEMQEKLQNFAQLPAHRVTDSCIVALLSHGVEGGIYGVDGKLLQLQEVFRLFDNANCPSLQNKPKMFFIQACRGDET
T2 sequence (P55215 348-452 limits assumed): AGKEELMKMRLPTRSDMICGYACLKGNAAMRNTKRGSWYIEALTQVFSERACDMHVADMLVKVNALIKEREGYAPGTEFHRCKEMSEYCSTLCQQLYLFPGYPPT

[3] = molecular target: T2, caspase-2; test: Dosage of caspase-2 activity in myocardial tissue, chronic ischemia (PMI) model; details: PMI 72 h; for caspase-2 activity: pre-treated rats, left ventricle (VG) and septum, 1 mg/kg

COC(=O)CC(NC(=O)[C@H](C)NC(=O)[C@@H](NC(=O)[C@H](CC(=O)OC)NC(=O)[C@@H](NC(=O)c1ccc2ccccc2n1)C(C)C)C(C)C)C(=O)COc1c(F)cccc1F (stereo partly drawn) [D1, (3S,6S,9S,12S)-methyl 15-(2-(2,6-difluorophenoxy)acetyl)-3,9-diisopropyl-6-(2-methoxy-2-oxoethyl)-12-methyl-1,4,7,10,13-pentaoxo-1-(quinolin-2-yl)-2,5,8,11,14-pentaazaheptadecan-17-oate] (Quinaldoyl-VD(OMe)VA-X1)
caspase-3 activity [1]: normalization of the activity; also recorded: prevents the further activation
caspase-2 activity [2]: normalization of the activity; also recorded: specifically inhibits
caspase-2 activity [3]: inhibited
caspase-2 basal activity ([3]; right ventricular (RV)): weak inhibition

CC(C)[C@H](NC(=O)c1ccc2ccccc2n1)C(=O)N[C@@H](CC(=O)O)C(=O)COc1c(F)cccc1F [Q-VD-OPH]
caspase-3 activity [1]: inhibits the activity of both caspases
caspase-3 activity ([1]; listed as QVDOPH): normalization of the activity
caspase-2 activity [2]: inhibits the activity of both caspases
caspase-2 activity ([2]; listed as QVDOPH): normalization of the activity
caspase-2 activity [3]: inhibited
